Results from PubChem BioAssay AID1259407 (Chemical Carcinogenesis Research Information System (CCRIS), 2018).
Active and inactive are the calls of the source. The rule behind the calls is not given here.

Tested on: CCRIS mutagenicity, Ames/micronucleus/aberration tests
Assay: CCRIS mutagenicity studies

Measured: mutagenic call

Cn1c(N)nc2ncc(-c3ccccc3)cc21
inactive: Test System: AMES SALMONELLA TYPHIMURIUM, Strain/Indicator: TA98, Metabolic Activation: MOUSE, KIDNEY, S-9, PHENETHYL ISOTHIOCYANATE, Method: STANDARD PLATE inactive; negative | Test System: AMES SALMONELLA TYPHIMURIUM, Strain/Indicator: TA98, Metabolic Activation: MOUSE, KIDNEY, S-9, Method: STANDARD PLATE inactive; negative | Test System: AMES SALMONELLA TYPHIMURIUM, Strain/Indicator: TA98, Metabolic Activation: MOUSE, LUNG, S-9, PHENETHYL ISOTHIOCYANATE, Method: STANDARD PLATE inactive; negative | Test System: AMES SALMONELLA TYPHIMURIUM, Strain/Indicator: TA98, Metabolic Activation: MOUSE, LUNG, S-9, Method: STANDARD PLATE inactive; negative | Test System: AMES SALMONELLA TYPHIMURIUM, Strain/Indicator: TA98, Metabolic Activation: RAT, COLON, S-9, 3-METHYLCHOLANTHRENE, Method: STANDARD PLATE inactive; negative | Test System: AMES SALMONELLA TYPHIMURIUM, Strain/Indicator: TA100, Metabolic Activation: RAT, LIVER, S-9, AROCLOR 1254, Method: PREINCUBATION inactive; negative | Test System: AMES SALMONELLA TYPHIMURIUM, Strain/Indicator: TA1978, Metabolic Activation: S-9 (2 MG/ML, 0.1 ML), Method: MICROSUSPENSION inactive; negative | Test System: AMES SALMONELLA TYPHIMURIUM, Strain/Indicator: YG1024, Metabolic Activation: RAT, COLON, S-9, 3-METHYLCHOLANTHRENE, Method: STANDARD PLATE inactive; negative
active: End Point: IN VITRO MICRONUCLEUS, Test System: CHL/IU CELLS, Metabolic Activation: RAT, LIVER, S-9, PHENOBARBITAL AND 5,6-BENZOFLAVONE active; positive | End Point: IN VIVO MICRONUCLEUS, Test System: BONE MARROW POLYCHROMATIC ERYTHROCYTES, Species: MOUSE, Strain/Sex: BALB/C/MALE, Route: IP INJECTION active; positive | End Point: IN VIVO MICRONUCLEUS, Test System: SPLENOCYTES, Species: MOUSE, Strain/Sex: BALB/C, Route: IO active; positive only for 48.8 mg dose at either 2 or 16 days after treatment | Test System: AMES SALMONELLA TYPHIMURIUM, Strain/Indicator: TA98(1,8-DNP6), Metabolic Activation: RAT, LIVER, S-9, AROCLOR, Method: PREINCUBATION active; positive | Test System: AMES SALMONELLA TYPHIMURIUM, Strain/Indicator: TA98(1,8-DNP6), Metabolic Activation: RAT, LIVER, S-9, Method: STANDARD PLATE active; positive | Test System: AMES SALMONELLA TYPHIMURIUM, Strain/Indicator: TA98, Metabolic Activation: HUMAN, LIVER, MICROSOMES, Method: PREINCUBATION active; positive | Test System: AMES SALMONELLA TYPHIMURIUM, Strain/Indicator: TA98, Metabolic Activation: MONKEY, LIVER, MICROSOMES, Method: PREINCUBATION active; positive | Test System: AMES SALMONELLA TYPHIMURIUM, Strain/Indicator: TA98, Metabolic Activation: MOUSE, LIVER, S-9, PHENETHYL ISOTHIOCYANATE, Method: STANDARD PLATE active; positive | Test System: AMES SALMONELLA TYPHIMURIUM, Strain/Indicator: TA98, Metabolic Activation: MOUSE, LIVER, S-9, Method: STANDARD PLATE active; positive | Test System: AMES SALMONELLA TYPHIMURIUM, Strain/Indicator: TA98, Metabolic Activation: RAT, LIVER, HEPATOCYTES, AROCLOR 1254, Method: PREINCUBATION active; positive | Test System: AMES SALMONELLA TYPHIMURIUM, Strain/Indicator: TA98, Metabolic Activation: RAT, LIVER, HEPATOCYTES, Method: PREINCUBATION active; positive | Test System: AMES SALMONELLA TYPHIMURIUM, Strain/Indicator: TA98, Metabolic Activation: RAT, LIVER, MICROSOMES, Method: PREINCUBATION active; positive | Test System: AMES SALMONELLA TYPHIMURIUM, Strain/Indicator: TA98, Metabolic Activation: RAT, LIVER, S-9, AROCLOR 1254, Method: PREINCUBATION active; positive | Test System: AMES SALMONELLA TYPHIMURIUM, Strain/Indicator: TA98, Metabolic Activation: RAT, LIVER, S-9, AROCLOR, Method: PREINCUBATION active; positive | Test System: AMES SALMONELLA TYPHIMURIUM, Strain/Indicator: TA98, Metabolic Activation: RAT, LIVER, S-9, Method: STANDARD PLATE active; positive | Test System: AMES SALMONELLA TYPHIMURIUM, Strain/Indicator: TA98, Metabolic Activation: S-9, Method: MICROSUSPENSION active; positive | Test System: AMES SALMONELLA TYPHIMURIUM, Strain/Indicator: TA1978, Metabolic Activation: S-9 (0.5 ML), Method: MICROSUSPENSION active; positive | Test System: AMES SALMONELLA TYPHIMURIUM, Strain/Indicator: TA1978, Metabolic Activation: S-9 (2 MG/ML, 0.25 ML), Method: MICROSUSPENSION active; positive | Test System: AMES SALMONELLA TYPHIMURIUM, Strain/Indicator: YG1019, Metabolic Activation: RAT LIVER S-9, AROCLOR, Method: PREINCUBATION active; positive | Test System: AMES SALMONELLA TYPHIMURIUM, Strain/Indicator: YG1024, Metabolic Activation: RAT, LIVER, S-9, AROCLOR, Method: PREINCUBATION active; positive | Test System: CHINESE HAMSTER V-79, Strain/Indicator: V-79/6-THIOGUANINE, Metabolic Activation: HAMSTER, PANCREAS DUCT, EPITHELIAL CELLS active; positive | Test System: CHINESE HAMSTER V-79, Strain/Indicator: V-79/6-THIOGUANINE, Metabolic Activation: HUMAN, PANCREAS DUCT, EPITHELIAL CELLS active; positive | Test System: CHINESE HAMSTER V-79, Strain/Indicator: XEMH1A2-MZ (HPRT)/6-THIOGUANINE, Metabolic Activation: NONE active; positive | Test System: HUMAN COLON CANCER CELLS, Strain/Indicator: DLD-1 (HPRT)/6-THIOGUANINE, Metabolic Activation: MOUSE LIVER S-9, PHENOBARBITAL AND 5,6-BENZOFLAVONE, Method: SUSPENSION/PLATE active; positive | Test System: HUMAN COLON CANCER CELLS, Strain/Indicator: HCT116 (HPRT)/6-THIOGUANINE, Metabolic Activation: MOUSE LIVER S-9, PHENOBARBITAL AND 5,6-BENZOFLAVONE, Method: SUSPENSION/PLATE active; positive | Test System: UDS HUMAN HEPATOCYTES, Strain/Indicator: THY INCORP, Metabolic Activation: NONE, Method: AUTORADIOGRAPHY active; positive | Test System: UDS MOUSE HEPATOCYTES, Strain/Indicator: THY INCORP, Metabolic Activation: NONE, Method: AUTORADIOGRAPHY active; positive
